According to the supplement of paper PMC10307832:

Compound: C1=CC2=C(C=C(C(=C2N=C1)O)N=NC3=CC4=C(C=C3)C=C(C=C4)S(=O)(=O)O)S(=O)(=O)O + COc1cc2c(Oc3ccc(NC(=O)C4(C(=O)Nc5ccc(F)cc5)CC4)cc3F)ccnc2cc1OCCCN1CCOCC1 [Foretinib] (partner 0.25 µM)
Test: relative viability (nuclei count vs DMSO), 5 days (fraction); higher = more cells survive
Conditions: first compound 0.08 µM
Summary of the method: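 Values are medians from duplicate plates. Each reflects relative viability, defined as the nuclei count of treated wells over that of vehicle wells. Lung cancer cell lines in 1536-well plates were pin-tool dosed one day after seeding with one drug alone or with a fixed anchor-drug dose plus five library-drug doses (not always all listed) in √10 steps, then fixed, stained and imaged at 4× after 5 days.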

Compared with HOP-62, LU99A is lower in relative viability: 1.23 for the first, 0.958 for the second.

Going from BEN to HARA, the relative viability rises from 0.489 to 1.23.

Going from HCC-78 to NCI-H322M, the relative viability rises from 0.608 to 1.1.

First: LCLC-97TM1
Second: A-427
The relative viability of the first is lower: 0.938 for the first, 0.986 for the second.

Going from NCI-H441 to NCI-H1734, the relative viability falls from 1.11 to 0.916.

First: NCI-H460
Second: NCI-H2347
The relative viability of the first is higher: 1.12 for the first, 1.07 for the second.

Going from NCI-H1395 to 201T, the relative viability rises from 0.965 to 1.21.

NCI-H1915 and HCC-827 are the same in relative viability: 1.12 for the first, 1.12 for the second.

Going from LXF-289 to NCI-H23, the relative viability falls from 1.09 to 0.544.

Going from NCI-H647 to CAL-12T, the relative viability falls from 1.33 to 1.08.

Compared with NCI-H1651, EPLC-272H is lower in relative viability: 0.923 for the first, 0.779 for the second.

Compared with NCI-H1355, NCI-H3122 is lower in relative viability: 1.1 for the first, 0.967 for the second.

First: NCI-H1437
Second: NCI-H1755
The relative viability of the first is higher: 1.33 for the first, 0.915 for the second.

Compared with HCC-15, NCI-H1793 is lower in relative viability: 1.15 for the first, 0.539 for the second.

Going from PC-14 to EKVX, the relative viability falls from 1.16 to 0.818.

Compared with LC-2-ad, NCI-H1944 is lower in relative viability: 1.13 for the first, 0.899 for the second.

Work on NCI-H1975 yielded a relative viability of 0.912.

Same assay, conditions: first compound 0.253 µM

First: HOP-62
Second: LU99A
The relative viability of the first is higher: 1.03 for the first, 0.812 for the second.

Compared with BEN, HARA is higher in relative viability: 0.521 for the first, 0.896 for the second.

First: HCC-78
Second: NCI-H322M
The relative viability of the first is lower: 0.571 for the first, 0.989 for the second.

Compared with LCLC-97TM1, A-427 is higher in relative viability: 0.932 for the first, 1.06 for the second.

First: NCI-H441
Second: NCI-H1734
The relative viability of the first is higher: 1.06 for the first, 0.892 for the second.

Compared with NCI-H460, NCI-H2347 is higher in relative viability: 1.01 for the first, 1.12 for the second.

Going from NCI-H1395 to 201T, the relative viability rises from 0.988 to 1.14.

First: NCI-H1915
Second: HCC-827
The relative viability of the first is higher: 1.04 for the first, 0.955 for the second.

Compared with LXF-289, NCI-H23 is lower in relative viability: 0.987 for the first, 0.923 for the second.

First: NCI-H647
Second: CAL-12T
The relative viability of the first is lower: 1.09 for the first, 1.25 for the second.

Compared with NCI-H1651, EPLC-272H is higher in relative viability: 0.727 for the first, 0.752 for the second.

Going from NCI-H1355 to NCI-H3122, the relative viability falls from 0.988 to 0.977.

Compared with NCI-H1437, NCI-H1755 is lower in relative viability: 1.23 for the first, 0.916 for the second.

First: HCC-15
Second: NCI-H1793
The relative viability of the first is higher: 0.972 for the first, 0.606 for the second.

Going from PC-14 to EKVX, the relative viability falls from 0.905 to 0.712.

Compared with LC-2-ad, NCI-H1944 is higher in relative viability: 0.874 for the first, 0.937 for the second.

NCI-H1975 gave a relative viability of 1.02.

Same assay, conditions: first compound 0.8 µM

Compared with HOP-62, LU99A is lower in relative viability: 1.13 for the first, 0.684 for the second.

First: BEN
Second: HARA
The relative viability of the first is lower: 0.732 for the first, 0.914 for the second.

Going from HCC-78 to NCI-H322M, the relative viability rises from 0.525 to 0.919.

First: LCLC-97TM1
Second: A-427
The relative viability of the first is lower: 0.865 for the first, 1.01 for the second.

Going from NCI-H441 to NCI-H1734, the relative viability falls from 1.04 to 0.777.

Compared with NCI-H460, NCI-H2347 is lower in relative viability: 1.01 for the first, 0.766 for the second.

Compared with NCI-H1395, 201T is higher in relative viability: 0.956 for the first, 1.15 for the second.

Going from NCI-H1915 to HCC-827, the relative viability falls from 1.09 to 0.995.

First: LXF-289
Second: NCI-H23
The relative viability of the first is higher: 0.998 for the first, 0.925 for the second.

First: NCI-H647
Second: CAL-12T
The relative viability of the first is higher: 1.14 for the first, 1.12 for the second.

First: NCI-H1651
Second: EPLC-272H
The relative viability of the first is higher: 0.864 for the first, 0.704 for the second.

First: NCI-H1355
Second: NCI-H3122
The relative viability of the first is lower: 0.92 for the first, 0.925 for the second.

First: NCI-H1437
Second: NCI-H1755
The relative viability of the first is higher: 1.32 for the first, 0.869 for the second.

Going from HCC-15 to NCI-H1793, the relative viability falls from 0.936 to 0.674.

First: PC-14
Second: EKVX
The relative viability of the first is higher: 0.815 for the first, 0.797 for the second.

First: LC-2-ad
Second: NCI-H1944
The relative viability of the first is higher: 0.966 for the first, 0.93 for the second.

NCI-H1975 showed a relative viability of 0.916.

Same assay, conditions: first compound 2.53 µM

Compared with HOP-62, LU99A is lower in relative viability: 1.15 for the first, 0.913 for the second.

Going from BEN to HARA, the relative viability rises from 0.686 to 0.901.

First: HCC-78
Second: NCI-H322M
The relative viability of the first is lower: 0.563 for the first, 0.89 for the second.

Compared with LCLC-97TM1, A-427 is higher in relative viability: 0.93 for the first, 1.08 for the second.

First: NCI-H441
Second: NCI-H1734
The relative viability of the first is higher: 1.07 for the first, 0.891 for the second.

First: NCI-H460
Second: NCI-H2347
The relative viability of the first is lower: 1.01 for the first, 1.13 for the second.

First: NCI-H1395
Second: 201T
The relative viability of the first is lower: 1.03 for the first, 1.15 for the second.

Going from NCI-H1915 to HCC-827, the relative viability falls from 1.13 to 1.05.

Going from LXF-289 to NCI-H23, the relative viability rises from 0.974 to 1.04.

Compared with NCI-H647, CAL-12T is lower in relative viability: 1.28 for the first, 1.06 for the second.

Going from NCI-H1651 to EPLC-272H, the relative viability falls from 0.857 to 0.646.

First: NCI-H1355
Second: NCI-H3122
The relative viability of the first is higher: 1.03 for the first, 0.982 for the second.

First: NCI-H1437
Second: NCI-H1755
The relative viability of the first is higher: 1.27 for the first, 0.944 for the second.

Going from HCC-15 to NCI-H1793, the relative viability falls from 1.07 to 0.749.

Going from PC-14 to EKVX, the relative viability falls from 0.971 to 0.861.

First: LC-2-ad
Second: NCI-H1944
The relative viability of the first is higher: 0.906 for the first, 0.769 for the second.

NCI-H1975 showed a relative viability of 1.04.

Same assay, conditions: first compound 8 µM

First: HOP-62
Second: LU99A
The relative viability of the first is higher: 1.04 for the first, 0.732 for the second.

Compared with BEN, HARA is higher in relative viability: 0.429 for the first, 0.821 for the second.

Compared with HCC-78, NCI-H322M is higher in relative viability: 0.3 for the first, 0.95 for the second.

First: LCLC-97TM1
Second: A-427
The relative viability of the first is lower: 0.986 for the first, 1.03 for the second.

Compared with NCI-H441, NCI-H1734 is lower in relative viability: 1.05 for the first, 0.88 for the second.

Going from NCI-H460 to NCI-H2347, the relative viability falls from 0.928 to 0.801.

First: NCI-H1395
Second: 201T
The relative viability of the first is lower: 1 for the first, 1.05 for the second.

First: NCI-H1915
Second: HCC-827
The relative viability of the first is higher: 1.12 for the first, 1.08 for the second.

Compared with LXF-289, NCI-H23 is lower in relative viability: 0.914 for the first, 0.84 for the second.

Going from NCI-H647 to CAL-12T, the relative viability falls from 1.3 to 0.772.

Compared with NCI-H1651, EPLC-272H is higher in relative viability: 0.623 for the first, 0.723 for the second.

Compared with NCI-H1355, NCI-H3122 is lower in relative viability: 0.996 for the first, 0.973 for the second.
